Measured values: the NIST ThermoML archive (doi:10.1021/je400679k)
Numbers after ± are expanded uncertainties.

Assay: xn = mol fraction of the nth substance listed
Conditions: 101 kPa, Liquid, Vibrating tube method

CNCCCN [N-methyl-1,3-diaminopropane] + CN(C)CCO
mass density [kg/m3]
Conditions	x1 = 0.0998	x1 = 0.2	x1 = 0.3001	x1 = 0.4	x1 = 0.4997	x1 = 0.5993	x1 = 0.6999	x1 = 0.799	x1 = 0.9	x1 = 1
283.15 K	893.869 ± 0.14	892.03 ± 0.17	889.578 ± 0.22	886.723 ± 0.26	883.31 ± 0.32	879.367 ± 0.38	875.276 ± 0.45	871.091 ± 0.52	866.659 ± 0.6	860.459 ± 0.68
293.15 K	885.469 ± 0.14	883.599 ± 0.18	881.113 ± 0.22	878.225 ± 0.26	874.783 ± 0.32	870.8 ± 0.38	866.663 ± 0.44	862.415 ± 0.52	857.904 ± 0.59	851.605 ± 0.67
303.15 K	876.968 ± 0.14	875.071 ± 0.18	872.551 ± 0.22	869.634 ± 0.26	866.166 ± 0.32	862.148 ± 0.38	857.97 ± 0.44	853.666 ± 0.51	849.087 ± 0.59	842.69 ± 0.67
313.15 K	868.337 ± 0.15	866.42 ± 0.18	863.872 ± 0.22	860.932 ± 0.26	857.442 ± 0.32	853.398 ± 0.37	849.183 ± 0.44	844.832 ± 0.51	840.193 ± 0.58	833.715 ± 0.66
323.15 K	859.574 ± 0.15	857.639 ± 0.18	855.069 ± 0.22	852.112 ± 0.26	848.606 ± 0.31	844.543 ± 0.37	840.3 ± 0.43	835.912 ± 0.5	831.218 ± 0.57	824.673 ± 0.65
333.15 K	850.654 ± 0.15	848.712 ± 0.18	846.131 ± 0.22	843.164 ± 0.26	839.647 ± 0.31	835.571 ± 0.37	831.314 ± 0.43	826.896 ± 0.49	822.163 ± 0.57	815.559 ± 0.64
343.15 K	841.562 ± 0.15	839.622 ± 0.18	837.042 ± 0.22	834.073 ± 0.26	830.555 ± 0.31	826.477 ± 0.37	822.212 ± 0.43	817.78 ± 0.49	813.022 ± 0.56	806.37 ± 0.63
353.15 K	832.286 ± 0.15	830.357 ± 0.19	827.791 ± 0.22	824.83 ± 0.26	821.322 ± 0.31	817.252 ± 0.36	812.995 ± 0.42	808.563 ± 0.48	803.789 ± 0.55	797.093 ± 0.62
363.15 K	822.801 ± 0.16	820.903 ± 0.19	818.354 ± 0.22	815.413 ± 0.26	811.93 ± 0.31	807.876 ± 0.36	803.636 ± 0.42	799.198 ± 0.48	794.432 ± 0.55	787.723 ± 0.61

CNCCCN [N-methyl-1,3-diaminopropane] + O
mass density [kg/m3]
Conditions	283.15 K	293.15 K	303.15 K	313.15 K	323.15 K	333.15 K	343.15 K	353.15 K	363.15 K
x1 = 0.0051	998.237 ± 0.1	996.63 ± 0.11	993.985 ± 0.12	990.476 ± 0.14	986.217 ± 0.15	981.304 ± 0.15	975.769 ± 0.16	969.7 ± 0.17	963.045 ± 0.18
x1 = 0.02	994.774 ± 0.071	992.593 ± 0.087	989.479 ± 0.1	985.566 ± 0.12	980.949 ± 0.13	975.762 ± 0.14	969.886 ± 0.15	963.52 ± 0.16	956.663 ± 0.17
x1 = 0.04	992.84 ± 0.051	989.571 ± 0.068	985.557 ± 0.085	980.873 ± 0.1	975.589 ± 0.11	969.758 ± 0.13	963.394 ± 0.14	956.509 ± 0.15	949.281 ± 0.16
x1 = 0.0599	991.664 ± 0.045	987.189 ± 0.057	982.161 ± 0.072	976.614 ± 0.087	970.587 ± 0.1	964.115 ± 0.11	957.198 ± 0.12	949.885 ± 0.13	942.172 ± 0.14
x1 = 0.08	991.853 ± 0.048	986.2 ± 0.057	980.175 ± 0.07	973.774 ± 0.084	967.022 ± 0.096	959.923 ± 0.11	952.467 ± 0.12	944.681 ± 0.12	936.552 ± 0.13
x1 = 0.1001	990.982 ± 0.065	984.3 ± 0.075	977.4 ± 0.085	970.258 ± 0.094	962.871 ± 0.1	955.236 ± 0.11	947.339 ± 0.12	939.185 ± 0.12	930.768 ± 0.13
x1 = 0.1496	985.446 ± 0.09	977.467 ± 0.097	969.396 ± 0.1	961.197 ± 0.11	952.86 ± 0.12	944.358 ± 0.12	935.674 ± 0.13	926.784 ± 0.13	917.665 ± 0.14
x1 = 0.2001	975.602 ± 0.12	967.23 ± 0.12	958.776 ± 0.13	950.269 ± 0.13	941.571 ± 0.13	932.714 ± 0.14	923.678 ± 0.14	914.46 ± 0.14	905.046 ± 0.14
x1 = 0.2996	953.237 ± 0.16	944.826 ± 0.16	936.29 ± 0.16	927.601 ± 0.16	918.738 ± 0.16	909.696 ± 0.17	900.476 ± 0.17	891.074 ± 0.17	881.47 ± 0.17
x1 = 0.4001	932.582 ± 0.2	924.145 ± 0.2	915.578 ± 0.2	906.849 ± 0.2	897.972 ± 0.2	888.926 ± 0.2	879.715 ± 0.21	870.324 ± 0.21	860.741 ± 0.21
x1 = 0.4995	915.228 ± 0.26	906.757 ± 0.26	898.165 ± 0.26	889.428 ± 0.26	880.556 ± 0.26	871.523 ± 0.26	862.344 ± 0.26	852.997 ± 0.26	843.475 ± 0.26
x1 = 0.5998	900.588 ± 0.32	892.069 ± 0.32	883.427 ± 0.32	874.666 ± 0.32	865.773 ± 0.32	856.742 ± 0.32	847.577 ± 0.32	838.26 ± 0.31	828.782 ± 0.31
x1 = 0.6995	888.711 ± 0.4	880.119 ± 0.4	871.429 ± 0.39	862.629 ± 0.39	853.712 ± 0.39	844.674 ± 0.39	835.508 ± 0.38	826.212 ± 0.38	816.767 ± 0.38
x1 = 0.7976	879.041 ± 0.48	870.383 ± 0.48	861.635 ± 0.47	852.787 ± 0.47	843.839 ± 0.47	834.781 ± 0.46	825.611 ± 0.46	816.324 ± 0.45	806.909 ± 0.45
x1 = 0.901	869.652 ± 0.58	860.902 ± 0.58	852.078 ± 0.57	843.17 ± 0.56	834.181 ± 0.56	825.1 ± 0.55	815.925 ± 0.54	806.659 ± 0.54	797.262 ± 0.53
x1 = 1	860.459 ± 0.68	851.605 ± 0.67	842.69 ± 0.67	833.715 ± 0.66	824.673 ± 0.65	815.559 ± 0.64	806.37 ± 0.63	797.093 ± 0.62	787.723 ± 0.61
